Results from patent US20040024043A1, “Method for treating cognitive disorders” (priority 2002, published 2004).
Entries after “also recorded” stand apart in the source; their conditions may differ.

What was measured:
[1] = Randomized, double-blind, placebo-controlled 12-week efficacy study (NPI, CGIC, ADAS-cog, MMSE, CANTAB, ADCS-ADL); format: in vivo, patients; details: 50 mg BID 2 weeks then 100 mg BID 10 weeks
Source text: A randomized, double-blind, placebo-controlled study is done to measure the efficacy of the (+) phenserine tartrate or formation as in Example 6 in given daily over twelve (12) weeks, in 60 patients diagnosed as having symptoms similar to those caused by Alzheimer's disease (PAD). In this study there was a total of 60 eligible patients with PAD whose primary language is English, and the patients constituted male and female patients between the ages of 50 and 85 years.
Forty patients will receive two weeks of PT and a 50 mg BID dose level, at which time their dose will be escalated to 100 mg BID, where it will remain for the final ten (10) weeks. Concurrently, twenty patients assigned to placebo medication receive matched placebo capsules for the entire 12 week duration of the study. A sufficient number of potential patients are screened to ensure enrollment of 60 eligible cases.
All study participants were evaluated prior to the study (First Level) and periodically throughout using the following standard efficacy tests;
NPI (Neuropsychiatric Inventory,
CGIC (Clinician's Global Impression of Change)
ADAS-cog (Alzheimer's Disease Assessment Scale—cognitive subscale)
MMSE (Mini-Mental State Exam)
CANTAB (Cambridge Neuropsychological Test Automated Battery—
ADCS-ADL (Activities of Daily Living)

[2] = test system: βAPP levels in SK-N-SH cells; experiment: βAPP levels by Western blot in neuroblastoma cells; format: cell-based; details: 0.5 μM to 50 μM, various time intervals up to 16 hours
Experimental: (§1) The (+) enantiomer of formula I prepared in Example 2 was tested against its phenserine with respect to controlling β-APP levels in and the resulting toxic amyloid protein (Aβ protein) derived from the β-APP-protein by the procedure disclosed in the Shaw et al. Proc. Nat. Acad. Sci. USA (2001), 98 (13), 7605-7610. Pages […] except that the test given below included (+) enantiomer of phenserine as well as phenserine itself so that phenserine and its (+) enantiomer were tested side by side for their effect in reducing the β-APP and Aβ-proteins. The methodology of Shaw et al for carrying out these tests is summarized as follows:
(§2) Drug treatment: SK-N-SH neuroblastoma cells were cultured on 60 mm dishes at a concentration of 3×10^6 cells, and SH-SY-5Y neuroblastoma cells were plated in 100 mm dishes at a concentration of 3×10^5 cells. The cells were allowed to grow in complete media (10% FBS, 2 mM glutamine in DMEM) for 3 to 4 days until they reached 70% confluence. To start the experiment, spent media were removed and replaced with fresh media (DMEM+0.5% FBS) containing 0, 5 or 50 μM of either (−)- or (+)-phenserine, and cells were incubated at 37 C, 5% CO2 for the specific times indicated.
Lysate preparation: At each time point, the spent medium was collected and stored at −70 C for later analysis of secretory βAPP levels. Cell lysates were prepared as reported previously (Lahiri et al., 1997 and 1998). Protein levels of the supernatant were analyzed by the Bradford protein assay (BioRad, Mellville, N.Y.).
Western Blot: Fifteen μg of protein from each sample was laded onto a 10% NuPAGE Bis-Tris gel in 1× NuPAGE MOPS SDS running buffer (NOVEX, San Diego, Calif.) and the proteins separated at 200 V for 45 min. The gels then were transferred onto nitrocellulose at 25 V for 1.5 h. […] Equivalent loading of samples was determined by Ponceau S staining (Sigma, St. Louis, Mo.). Densimetric quantification of the chemiluminesence of blots was undertaken by using a […] and NIH-IMAGE (version 4.1).

[3] = test system: Aβ protein levels in SK-N-SH cells; experiment: Total Aβ assay (ELISA) in neuroblastoma cell cultures; format: cell-based; details: especially after 10 hours
Experimental: as §1, §2
Total Aβ Assay: Total Aβ peptide levels in SH-SY-5Y and SK-N-SH cultured samples were assayed by a sensitive ELISA (Suzuki et al., 1994). For total Aβ measurements, the a sandwich immunoassay with rabbit polyclonal antibody to residues 1-40 residues of Aβ as a capture antibody for all species of Aβ peptide Aβ1-40 and Aβ1-42 and the monoclonal antibody to 17-25 residues of Aβ was used to detect Aβ peptide levels, and the values were expressed as the mean of six independent assays.

[4] = In vivo studies: cholinergic side effects after i.p. administration; details: rodents
Experimental: This is a classical central (i.e., brain) cholinergic over-stimulation (overdrive) effect. Such a tremor persisted for approximately 1 hour.

acetylcholinesterase [5] = target: T1, acetylcholinesterase (Homo sapiens, UniProt P22303); details: as stated in Shaw et al., PNAS 2001; read-out: concentration of compound required to inhibit 50% acetylcholinesterase activity; cited from earlier work
Target sequence in this assay (P22303 32-614, species assumed): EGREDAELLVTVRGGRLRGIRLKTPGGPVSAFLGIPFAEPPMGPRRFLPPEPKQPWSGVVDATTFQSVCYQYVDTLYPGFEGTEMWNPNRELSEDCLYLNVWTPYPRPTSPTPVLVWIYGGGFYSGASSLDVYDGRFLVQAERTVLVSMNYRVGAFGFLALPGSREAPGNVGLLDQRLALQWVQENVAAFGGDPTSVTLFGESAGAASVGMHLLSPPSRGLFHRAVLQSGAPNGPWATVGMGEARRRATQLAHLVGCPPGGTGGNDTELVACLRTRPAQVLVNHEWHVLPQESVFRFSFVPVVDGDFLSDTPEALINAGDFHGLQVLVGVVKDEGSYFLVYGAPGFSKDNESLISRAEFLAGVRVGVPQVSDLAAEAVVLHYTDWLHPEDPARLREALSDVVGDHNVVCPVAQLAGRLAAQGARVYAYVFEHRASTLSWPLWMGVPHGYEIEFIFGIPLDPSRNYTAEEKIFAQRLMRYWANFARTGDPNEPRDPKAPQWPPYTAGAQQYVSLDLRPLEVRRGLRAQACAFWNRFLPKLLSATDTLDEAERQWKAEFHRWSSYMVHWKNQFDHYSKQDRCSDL

acetylcholinesterase [6] = target: T1, acetylcholinesterase; details: compared with negative enantiomer phenserine; Pei, Greig et al. 1995; cited from earlier work
Target sequence in this assay (P22303 32-614): as the sequence (P22303 32-614, species assumed) above

Row | SMILES | level in the efficacy tests at end of twelve weeks versus First Level prior to treatment ([1]; patients with symptoms similar to Alzheimer's disease, oral capsules) | patients with an improvement over First Level at end of twelve-week period ([1]; treated group) | βAPP levels compared to control ([2]; FIGS. 1 and 3) | levels of Aβ protein compared to control ([3]; FIGS. 2 and 3) | persistence of tremor ([4]; 5 mg/kg) | symptoms observed ([4]; 5 mg/kg (1 ml/kg in isotonic saline)) | symptoms observed ([4]; 7.5 mg/kg) | animals killed when moribund, of 5 treated animals ([4]; 20 mg/kg) | symptoms observed ([4]; 20 mg/kg) | βAPP levels compared to control ([2]; FIGS. 1 and 3, listed as positive isomer of phenserine) | levels of Aβ protein compared to control ([3]; FIGS. 2 and 3, listed as positive isomer of phenserine) | IC50 (acetylcholinesterase [5]) | activity as an inhibitor of human acetylcholinesterase (acetylcholinesterase [6])
1 | CN1CC[C@]2(C)c3cc(OC(=O)Nc4ccccc4)ccc3N(C)[C@H]12.O=C(O)C(O)C(O)C(=O)O (single isomer, unassigned) [(+) phenserine tartrate, tartaric acid salt of the +enantiomer of N-phenyl carbanoyl eseroline] | maintain a level at least as great as the First Level | about 30% | – | – | – | – | – | – | – | – | – | – | –
2 | CN1CC[C@@]2(C)c3cc(OC(=O)Nc4ccccc4)ccc3N(C)C12 (single isomer, unassigned; (-)) [(−)-phenserine, (−) N-(−)-N phenyl canbamoyleseroline] | – | – | reduces secreted and cellular βAPP levels in a concentration dependent manner; also recorded: decreased the βAPP levels | reduced Aβ protein levels; also recorded: substantially reduced | approximately 1 hour | fine tremor | Tremor, together with symptoms of peripheral over-stimulation (specifically, lacrimation and salivation) | 2 | incapacitated by severe tremor and peripheral side effects | – | – | – | –
3 | CN1CC[C@]2(C)c3cc(OC(=O)Nc4ccccc4)ccc3N(C)C12 (single isomer, unassigned; (+)) [(+)-phenserine, (+) 9-N-phenylcarbinol esroline] | – | – | effective in reducing | effective in reducing | – | – | – | – | entirely without symptoms | reduces the production | reduces the production | > 25 µM | far less active
